Assay in all cases: NCI-60 cell line screen, 48 h
In assay [1] the test system is UO-31 renal.
Assay [2] has as its system K-562 leukemia.
Assay [3] concerns TK-10 renal.
Assay [4] concerns HCT-116 colon.
For assay [5], the system named is IGROV1 ovarian.
Assay [6] concerns MOLT-4 leukemia.
Assay [7] deals with MDA-MB-435.
For assay [8], the system named is BT-549 breast.
Assay [9] has as its system HOP-62 NSCLC.
Assay [10] has as its system SNB-19 CNS.
The subject of assay [11] is SNB-75 CNS.
For assay [12], the system named is HL-60(TB) leukemia.

The structures appear in SMILES notation.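 How tested: cells in 96-well plates exposed to compound for 48 hours at five concentrations. At the TGI there is no net growth.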 Where a SMILES comes first, the peptide text is derived from it. Bridges are numbered along the chain shown (N, C = ends). The star is where a group is joined. Cbz = O=C(OCc1ccccc1)*

On to `COc1ccc2c(-c3ccc(OCCN(C)C)cc3)c(Oc3ccc(Cl)cc3)c(=O)oc2c1`, for which the TGI was determined as 11.9 µM in assay [1]; 4.95 µM in assay [2]; 26.4 µM in assay [3]; 8.49 µM in assay [4]; 14.1 µM in assay [5]; 6.09 µM in [6]. Further, the TGI is 8.66 µM in assay [7]; 37.6 µM in [8]; > 100 µM in assay [9]; 33.6 µM in assay [10]; 27.6 µM in [11].

As for `CCOC(=O)c1c(N2CCOCC2)[nH]c(=O)c(C(c2cccs2)c2c(O)c(C(=O)OCC)c(N3CCOCC3)[nH]c2=O)c1O`, the TGI in assay [1], in assay [2], in assay [3], in assay [4], in [6] and in [7] was > 100 µM throughout. Further, the TGI in assay [8], in assay [9], in assay [10] and in [11] was > 100 µM in each case.

Consider `CC1=NN(C(=O)c2ccc(Cl)cc2)C(=O)/C1=C/c1ccc(Cl)cc1`, for which the TGI in [1], in assay [2], in assay [3], in assay [4], in assay [5] and in assay [6] was > 100 µM in each case. In addition, the TGI in assay [12], in [9] and in [10] was > 100 µM throughout.

On to `O=c1[nH]cnc2sc(=S)c3c(c12)CCC3`, for which the TGI in assay [1] is > 100 µM; in assay [2] it was 29.2 µM; in [3], 61.9 µM; in [4] it was > 100 µM; in [5], > 100 µM; in assay [6], 41.2 µM. Moreover, the TGI in assay [7] is > 100 µM; in assay [12] it was 57.6 µM; in assay [9] it was > 100 µM; in assay [10], > 100 µM; in assay [11] it was > 100 µM.

Turning to `C=C(Br)CNCC(=C)Br`, the TGI in assay [1], in assay [2], in assay [3], in assay [4], in [5] and in assay [6] was > 100 µM throughout. Also, the TGI in [7], in assay [12], in [9], in assay [10] and in assay [11] was > 100 µM throughout.

For `COC(=O)C1CCCCNC(=O)CCC(NC(=O)OCc2ccccc2)C(=O)N1` (stereo not drawn) (Cbz-Glu-Lys-OMe; lactam 1-2; configuration not given here), the TGI in [1], in assay [2], in [3], in assay [4], in assay [5] and in assay [6] was > 100 µM in each case. In addition, the TGI in [7], in assay [12], in assay [9], in [10] and in [11] was > 100 µM throughout.

Take `C/C(=C\Cc1cc(O)ccc1O)CCc1c(C)c(O)c(O)c(C=O)c1C`: the TGI in assay [1] is 98.8 µM; in assay [2], > 100 µM; in assay [3], > 100 µM; in [4] it was 40.3 µM; in assay [5] it was 41.3 µM; in assay [6], > 100 µM. The TGI in [12], in [10] and in assay [11] was > 100 µM each time.

Regarding `CC(=O)c1ccc(N2CCN(C3=CC(=O)c4c(O)ccc(O)c4C3=O)CC2)cc1`, the TGI in assay [1] is 35.5 µM; in [2], > 100 µM; in assay [3], > 100 µM; in assay [4], > 100 µM; in assay [5] it was > 100 µM; in assay [6], > 100 µM. The TGI in assay [12] was 38.6 µM; in assay [9], > 100 µM; in assay [10] it was > 100 µM; in [11], 61.7 µM.

Turning to `COc1cc(OC)cc(-n2c(N)c(-c3nc4ccccc4n3C)c3ccc([N+](=O)[O-])cc3c2=O)c1`, the TGI in assay [1], in assay [2], in [3], in assay [4], in [7] and in [8] was > 100 µM in each case. In addition, the TGI is > 100 µM in assay [10] and 63.9 µM in assay [11].

In the case of `CN1Cc2c(nc(-c3ccc(Br)cc3)c[n+]2[O-])N(C)C1`, the TGI in assay [1], in [2], in assay [4], in assay [5], in assay [6] and in assay [12] was > 100 µM each time. In addition, the TGI in [9], in [10] and in [11] was > 100 µM throughout.

As to `COC1(C)C(=O)N2C1N(C(=O)OCc1ccccc1)CC2(C)C` (centres undefined), the TGI in [1], in assay [2], in assay [3], in [4], in [5] and in assay [6] was > 100 µM in each case. Moreover, the TGI in assay [12], in assay [9], in assay [10] and in [11] was > 100 µM in each case.

As to `C[C@@H]1CC[C@@H](C)[C@](C)(CCc2ccoc2)C/C=C\C=C/1C(=O)O`, the TGI in assay [1], in assay [2], in assay [3], in [4], in assay [5] and in assay [6] was > 50 µM throughout. For the same molecule, the TGI in [8], in [12], in assay [9], in [10] and in assay [11] was > 50 µM each time.

With `CN(C)C(=O)C(F)(F)C(c1ccc(Br)cc1)C1C(=O)N(C)C(=O)N(C)C1=O` (centres undefined), the TGI in [1], in assay [2], in assay [3], in assay [4], in [7] and in [8] was > 100 µM throughout. For the same molecule, the TGI in [9], in assay [10] and in [11] was > 100 µM in each case.

Source of the values: PubChem BioAssay (NCI).
